Our source for the MIC values is patent EP0319906A2, “Novel quinoline derivatives, processes for preparation thereof and antibacterial agent containing them” (Dainippon Pharmaceutical Co., Ltd., priority 1987, dated 1989).

What all share (assay type): cell-based
Assay [1] deals with S. aureus Terajima. Description: In vitro antibacterial activity, twofold agar-dilution MIC. Conditions: Staphylococcus aureus; S. aureus Terajima; Mueller-Hinton agar, 20-hour incubation at 37 °C; calculated for free base; read-out: minimum inhibitory concentrations (MIC). On the procedure: (§1) The figures in the table show minimum inhibitory concentrations (MIC) (µg/ml), calculated for free base. […] One loopful of an overnight culture of test organisms in Mueller-Hinton broth was inoculated onto 10 ml drug- containing agar layers in petri dishes. Bacterial inocula contained approximately 10⁶ colonyl-forming units. […] The MIC was defined as the lowest drug concentration which prevented visible bacterial growth.

Assay [2] concerns S. marcescens S-9. The assay is described as above. The note with it: Serratia marcescens, S9; S. marcescens S-9; Mueller-Hinton agar, 20-hour incubation at 37 °C; calculated for free base; read-out: minimum inhibitory concentrations (MIC). As to the method:
as §1

The subject of assay [3] is E. coli P-5101. The assay is described as above. Conditions: Escherichia coli, P5101; E. coli P-5101; Mueller-Hinton agar, 20-hour incubation at 37 °C; calculated for free base; read-out: minimum inhibitory concentrations (MIC). As to the method: as §1
Assay [4] concerns P. aeruginosa 12. The assay is described as above. Conditions: Pseudomonas aeruginosa; P. aeruginosa 12; Mueller-Hinton agar, 20-hour incubation at 37 °C; calculated for free base; read-out: minimum inhibitory concentrations (MIC). On the procedure: as §1
Assay [5] relates to S. pyogenes A65. The description is as above. Conditions: Streptococcus pyogenes; S. pyogenes A65; Mueller-Hinton agar, 20-hour incubation at 37 °C; calculated for free base; read-out: minimum inhibitory concentrations (MIC). On the procedure:
as §1

In assay [6] the test system is S. aureus 209 JC-1. The assay is described as above. Conditions: Staphylococcus aureus, 209JC1; S. aureus 209 JC-1; Mueller-Hinton agar, 20-hour incubation at 37 °C; calculated for free base; read-out: minimum inhibitory concentrations (MIC). On the procedure:
as §1

Assay [7] concerns S. epidermidis No. 8. The assay is described as above. Conditions: Staphylococcus epidermidis; S. epidermidis No. 8; Mueller-Hinton agar, 20-hour incubation at 37 °C; calculated for free base; read-out: minimum inhibitory concentrations (MIC). As to the method: as §1
Assay [8] concerns E. coli NIHJ JC-2. The description is as above. Conditions: Escherichia coli, NIHJJC2; E. coli NIHJ JC-2; Mueller-Hinton agar, 20-hour incubation at 37 °C; calculated for free base; read-out: minimum inhibitory concentrations (MIC). On the procedure:
as §1

The subject of assay [9] is S. aureus No. 80. Described as above. Conditions: Staphylococcus aureus; S. aureus No. 80; Mueller-Hinton agar, 20-hour incubation at 37 °C; calculated for free base; read-out: minimum inhibitory concentrations (MIC). On the procedure: as §1
Assay [10] concerns C. Trachomatics G/ur 1448. Description: Antichlamydia activity, MIC in McCoy cells (inclusion bodies). The note with it: C. Trachomatics G/ur 1448; McCoy cells, 36 °C for 40-48 hours; calculated for free base; read-out: minimum inhibitory concentrations (MIC). On the procedure: (§2) The figures in the table show minimum inhibitory concentrations (MIC), (μg/ml), calculated for free base. Minimum inhibitory concentrations (MIC) were determined as follows. […] The cells were trypsinized and suspended in the same culture medium at a cell concentration of 1-2 x 10^5 cells/ml. One ml of the cell suspension was pipetted into flat-bottomed plastic tubes (14 mm in diameter) containing a cover slip (12 mm in diameter). The tubes were incubated in 5 % CO2-air at 36 °C for 20 hours. One-half ml of a chlamydial suspension (ca. 1-4 x 103 inclusion body forming units) was added into each tube, which was then centrifuged at 1500 x g for 60 minutes. The tubes were incubated for 1 hour at 36 °C. […] After further incubation at 36 °C for 40-48 hours, the cells on the cover glasses were stained with the Giemsa's solution. […] The MIC was defined as the lowest drug concentration where there were no inclusion bodies in all the cells on the cover slip.

Assay [11] deals with C. Trachomatics G/ur 1317. The assay is described as above. Conditions: C. Trachomatics G/ur 1317; McCoy cells, 36 °C for 40-48 hours; calculated for free base; read-out: minimum inhibitory concentrations (MIC). As to the method: as §2
In assay [12] the test system is C. Trachomatics G/ur 1242. The assay is described as above. Conditions: C. Trachomatics G/ur 1242; McCoy cells, 36 °C for 40-48 hours; calculated for free base; read-out: minimum inhibitory concentrations (MIC). As to the method:
as §2

For assay [13], the system named is C. Trachomatics G/ur 931. The assay is described as above. Conditions: C. Trachomatics G/ur 931; McCoy cells, 36 °C for 40-48 hours; calculated for free base; read-out: minimum inhibitory concentrations (MIC). On the procedure:
as §2

Assay [14] concerns M. fermentans PG-18. Description: Antimycoplasma activity, twofold agar dilution MIC. Conditions: Mycoplasmopsis fermentans, PG18, 48 h; M. fermentans PG-18; Chanock agar, 37 °C for 2 days, anaerobically; calculated for free base; read-out: minimum inhibitory concentrations (MIC). As to the method:
(§3) The figures in the table show minimum inhibitory concentrations (MIC), (μg/ml), calculated for free base. Minimum inhibitory concentrations (MIC) were determined by the twofold agar dilution method. The media used were Chanock broth and agar [PPLD broth and agar (Difco) supplemented with 20 % horse serum and 10 % fresh yeast extract]. A 2-3 day broth culture of organisms was diluted with Chanock broth to a cell density of about 10^6 cells/ml. One loopful (about […]) of the organism dilution was spotted onto 10-ml drug containing Chanock agar in petri dishes using a multiple inoculator ([…] International). […] Incubation was performed anaerobically using the […] anaerobic system (BBL) for M. buccale, M. fermentans, M. hominis, M. orale and M. salivarium, and aerobically for other Mycoplasma spp. The MIC was defined as the lowest compound concentration at which no growth of organism was detected.

Assay [15] deals with M. hominis PG-21. Description: Antimycoplasma activity, twofold agar dilution MIC. Conditions: Metamycoplasma hominis, PG21, 48 h; M. hominis PG-21; Chanock agar, 37 °C for 2 days, anaerobically; calculated for free base; read-out: minimum inhibitory concentrations (MIC). As to the method:
as §3

The subject of assay [16] is M. arginini G-230. Kind of assay: Antimycoplasma activity, twofold agar dilution MIC. Conditions: 48 h; M. arginini G-230; Chanock agar, 37 °C for 2 days, aerobically; calculated for free base; read-out: minimum inhibitory concentrations (MIC). As to the method:
as §3

Assay [17] relates to A. laidlawii PG-8. Kind of assay: Antimycoplasma activity, twofold agar dilution MIC. The note with it: Acholeplasma laidlawii, PG8, 48 h; A. laidlawii PG-8; Chanock agar, 37 °C for 2 days, aerobically; calculated for free base; read-out: minimum inhibitory concentrations (MIC). On the procedure: as §3
In assay [18] the test system is M. hyorhinis BST-7. Kind of assay: Antimycoplasma activity, twofold agar dilution MIC. Conditions: Mesomycoplasma hyorhinis, BST7, 48 h; M. hyorhinis BST-7; Chanock agar, 37 °C for 2 days, aerobically; calculated for free base; read-out: minimum inhibitory concentrations (MIC). On the procedure:
as §3

The subject of assay [19] is M. salivarium PG-20. Description: Antimycoplasma activity, twofold agar dilution MIC. The note with it: 48 h; M. salivarium PG-20; Chanock agar, 37 °C for 2 days, anaerobically; calculated for free base; read-out: minimum inhibitory concentrations (MIC). As to the method:
as §3

Assay [20] has as its system M. orale CH-19299. Kind of assay: Antimycoplasma activity, twofold agar dilution MIC. Conditions: po, 48 h; M. orale CH-19299; Chanock agar, 37 °C for 2 days, anaerobically; calculated for free base; read-out: minimum inhibitory concentrations (MIC). As to the method:
as §3

The test system of assay [21] is M. pneumoniae Mac. Description: Antimycoplasma activity, twofold agar dilution MIC. The note with it: Mycoplasmoides pneumoniae, 168 h; M. pneumoniae Mac; Chanock agar, 37 °C for 7 days, aerobically; calculated for free base; read-out: minimum inhibitory concentrations (MIC). On the procedure:
as §3

Assay [22] concerns M. buccale CH-20249. Kind of assay: Antimycoplasma activity, twofold agar dilution MIC. Conditions: 48 h; M. buccale CH-20249; Chanock agar, 37 °C for 2 days, anaerobically; calculated for free base; read-out: minimum inhibitory concentrations (MIC). On the procedure: as §3

Values after ≈ are worked out from the molar mass of the structure shown.

On to `C[C@@H]1CN(c2c(F)cc3c(=O)c(C(=O)O)cn(C4CC4)c3c2F)C[C@H](C)N1` [Compound C, 1-cyclopropyl-6,8-difluoro-7-(cis-3,5-dimethyl-1-piperazinyl)-1,4-dihydro-4-oxoquinoline-3-carboxylic acid], for which the MIC was 0.1 µg/mL (≈ 0.265 µM) in assay [1]; 0.2 µg/mL (≈ 0.53 µM) in assay [2]; 0.0125 µg/mL (≈ 0.0331 µM) in [3]; 0.78 µg/mL (≈ 2.07 µM) in [4]; 0.78 µg/mL (≈ 2.07 µM) in [5]; 0.1 µg/mL (≈ 0.265 µM) in assay [6]. The MIC in assay [7] was 0.1 µg/mL (≈ 0.265 µM); in [8], 0.0125 µg/mL (≈ 0.0331 µM); in [9], 0.1 µg/mL (≈ 0.265 µM); in assay [10], 0.2 µg/mL (≈ 0.53 µM); in assay [11], 0.2 µg/mL (≈ 0.53 µM); in [12], 0.2 µg/mL (≈ 0.53 µM). Moreover, the MIC in assay [13] was 0.2 µg/mL (≈ 0.53 µM); in assay [14], 0.1 µg/mL (≈ 0.265 µM); in assay [15], 0.2 µg/mL (≈ 0.53 µM); in assay [16], 0.39 µg/mL (≈ 1.03 µM); in assay [17], 0.39 µg/mL (≈ 1.03 µM); in [18], 0.1 µg/mL (≈ 0.265 µM). Further, the MIC in [19] is 0.78 µg/mL (≈ 2.07 µM); in assay [20], 0.78 µg/mL (≈ 2.07 µM); in [21] it was 0.2 µg/mL (≈ 0.53 µM); in assay [22], 0.2 µg/mL (≈ 0.53 µM).
